Source: ChEMBL document CHEMBL5724696, “Autophagy assay results for EUbOPEN Chemogenomics Library” (2024)
Several values for one entry are separate records, joined by “and”; a condition that tells them apart may be missing. Equal values may be shown once.

Columns and labels:
Format in all cases: functional, Homo sapiens
[1] = system: U2OS; experiment: (§1) Here: values are normalized to the negative (DMSO; defined as 0% autophagy induction) and positive (250nM Torin1; mTOR inhibitor; defined as maximal inducer of autophagy = 100%) control compounds and represented as % of autophagy induction. […] The impact of autophagy induction on cells is complex and depends on the affected target. As such, the magnitude of a phenotype may not be equally mirrored in the %-value of autophagy induction and vice versa. The dynamics of the induction may indicate the mode of activation: e.g. activation via phosphorylation or a signaling cascade may occur fast, while activation via transcription factors may take considerably longer. […] Of note, treatment concentrations may be sub-optimal for specific compounds, leading to false negative annotations.; conditions: Culturing Media DMEM, 1 % Penicillin/Streptomycin, 10% Fetal bovin serum Add-On: No, Screening Media Control DMEM, Screening Media Samples DMEM
[2] = system: TERT-RPE1; experiment: as §1; conditions: Culturing Media DMEM/F12 (1:1), 1 % Penicillin/Streptomycin, 10% Fetal bovin serum Add-On: No, Screening Media Control DMEM/F12 (1:1), Screening Media Samples DMEM/F12 (1:1)
[3] = system: U2OS; experiment: as §1; conditions: Culturing Media DMEM, 1 % Penicillin/Streptomycin, 10% Fetal bovin serum Add-On: No, Screening Media Control DMEM, Screening Media Samples DMEM; remark: listed apart in the source
[4] = Compound Concentration 0.5 uM, Timepoint 12 hours
[5] = Compound Concentration 0.5 uM, Timepoint 24 hours
[6] = Compound Concentration 0.5 uM, Timepoint 36 hours
[7] = Compound Concentration 0.5 uM, Timepoint 60 hours
[8] = Compound Concentration 2 uM, Timepoint 12 hours
[9] = Compound Concentration 2 uM, Timepoint 24 hours
[10] = Compound Concentration 2 uM, Timepoint 36 hours
[11] = Compound Concentration 2 uM, Timepoint 60 hours
[12] = Compound Concentration 10 uM, Timepoint 12 hours
[13] = Compound Concentration 10 uM, Timepoint 24 hours
[14] = Compound Concentration 10 uM, Timepoint 36 hours
[15] = Compound Concentration 10 uM, Timepoint 60 hours

COc1ccc(S(=O)(=O)N2c3ccc(Cl)cc3[C@](O)(c3ccccc3Cl)[C@@H]2C(=O)N2CCC[C@H]2C(N)=O)cc1OC [RELCOVAPTAN]
autophagy induction [1, 4]: -0.4488% | autophagy induction [1, 5]: -3.182% | autophagy induction [1, 6]: -42.6034% | autophagy induction [1, 7]: -2.284% | autophagy induction [1, 8]: -3.799% | autophagy induction [1, 9]: -4.202% | autophagy induction [1, 10]: -60.4871% | autophagy induction [1, 11]: -1.266% | autophagy induction [1, 12]: 4.624% | autophagy induction [1, 13]: 2.3507% | autophagy induction [1, 14]: -58.7044% | autophagy induction [1, 15]: -2.271% | autophagy induction ([2]; Compound Concentration 0.5 uM, Timepoint 12 hours, 12 h, 0.5 µM): -0.4521% and -5.349% | autophagy induction ([2]; Compound Concentration 0.5 uM, Timepoint 24 hours, 24 h, 0.5 µM): -0.2273% and -4.727% | autophagy induction ([2]; Compound Concentration 0.5 uM, Timepoint 36 hours, 36 h, 0.5 µM): -2.897% and -4.661% | autophagy induction ([2]; Compound Concentration 0.5 uM, Timepoint 60 hours, 60 h, 0.5 µM): -4.347% and -7.0603% | autophagy induction ([2]; Compound Concentration 2 uM, Timepoint 12 hours, 12 h, 2 µM): 0.8726% and -2.524% | autophagy induction ([2]; Compound Concentration 2 uM, Timepoint 24 hours, 24 h, 2 µM): -1.739% and -2.756% | autophagy induction ([2]; Compound Concentration 2 uM, Timepoint 36 hours, 36 h, 2 µM): -2.675% and -2.785% | autophagy induction ([2]; Compound Concentration 2 uM, Timepoint 60 hours, 60 h, 2 µM): -4.303% and -2.0726% | autophagy induction ([2]; Compound Concentration 10 uM, Timepoint 12 hours, 12 h, 10 µM): 0.7279% and 5.088% | autophagy induction ([2]; Compound Concentration 10 uM, Timepoint 24 hours, 24 h, 10 µM): 4.093% and 9.7265% | autophagy induction ([2]; Compound Concentration 10 uM, Timepoint 36 hours, 36 h, 10 µM): 6.165% and 16.6943% | autophagy induction ([2]; Compound Concentration 10 uM, Timepoint 60 hours, 60 h, 10 µM): 11.326% and 28.0498% | autophagy induction [3, 4]: -8.786% | autophagy induction [3, 5]: -9.572% | autophagy induction [3, 6]: -12.5258% | autophagy induction [3, 7]: -16.7068% | autophagy induction [3, 8]: -3.79% | autophagy induction [3, 9]: -9.305% | autophagy induction [3, 10]: -13.7756% | autophagy induction [3, 11]: -18.6617% | autophagy induction [3, 12]: -6.744% | autophagy induction [3, 13]: -13.3744% | autophagy induction [3, 14]: -5.479% | autophagy induction [3, 15]: -4.839%
